This note sets out measurements from ChEMBL document CHEMBL1201862, “PubChem BioAssay data set” (2004).

Assay [1] in a line: Luminescence Cell-Based Dose Confirmation HTS to Identify Activators of 5'UTR Stem-Loop Driven Alpha-Synuclein mRNA Translation in H4 Neuroglioblastoma Cells. [Related pubchem assays: 1829 (Project Summary), 1814 (Primary HTS)]. Type of assay: functional.
A short description of assay [2]: Luminescence Cell-Based Dose Response HTS to Identify Activators of Luciferase Translation or Activity in H4 […] Cells. [Related pubchem assays: 1829 (Project Summary), 1814 (Primary HTS)]. Type of assay: functional.
Another assay deals with H4. Kind of assay: Luminescence Cell-Based Dose Response HTS to Identify Activators of 5'UTR Stem-Loop Driven Prion Protein mRNA Translation in H4 Neuroglioblastoma Cells. [Related pubchem assays: 1829 (Project Summary), 1814 (Primary HTS)]. To be noted: Homo sapiens. Type of assay: functional.
The nature of assay [3]: THP-1 cell cytotoxicity, dose response, cytotoxicity control for non-replicating M. tuberculosis project (AID 489025). The assay is classed as functional.
The nature of assay [4]: Vero E6 cell cytotoxicity, dose response, cytotoxicity control for non-replicating M. tuberculosis project, secondary assay (AID 492998). Type of assay: functional, VeroE6. To be noted: Vero C1008.
Assay [5] concerns the target FAD-linked sulfhydryl oxidase ALR (Homo sapiens, UniProt P55789). Kind of assay: ALR-catalysed DTT oxidation blockers – biochemical, H2O2 detection, luminescence, cherry-pick, dose response (AID 493248).
A short description of assay [6]: cells. The assay is classed as functional.
In assay [7] the target is Heat shock protein HSP 90-alpha (Homo sapiens, UniProt P07900). The assay is classed as functional, organism-based.
A short description of assay [8]: viability loss in HeLa cells – cytotoxicity control for MgcRacGAP inhibitor project, dose response (AID 624300). Type of assay: functional.
For assay [9], the target named is T1, Rac GTPase-activating protein 1 (Homo sapiens, UniProt Q9H0H5).
T1 sequence (Q9H0H5 whole entry): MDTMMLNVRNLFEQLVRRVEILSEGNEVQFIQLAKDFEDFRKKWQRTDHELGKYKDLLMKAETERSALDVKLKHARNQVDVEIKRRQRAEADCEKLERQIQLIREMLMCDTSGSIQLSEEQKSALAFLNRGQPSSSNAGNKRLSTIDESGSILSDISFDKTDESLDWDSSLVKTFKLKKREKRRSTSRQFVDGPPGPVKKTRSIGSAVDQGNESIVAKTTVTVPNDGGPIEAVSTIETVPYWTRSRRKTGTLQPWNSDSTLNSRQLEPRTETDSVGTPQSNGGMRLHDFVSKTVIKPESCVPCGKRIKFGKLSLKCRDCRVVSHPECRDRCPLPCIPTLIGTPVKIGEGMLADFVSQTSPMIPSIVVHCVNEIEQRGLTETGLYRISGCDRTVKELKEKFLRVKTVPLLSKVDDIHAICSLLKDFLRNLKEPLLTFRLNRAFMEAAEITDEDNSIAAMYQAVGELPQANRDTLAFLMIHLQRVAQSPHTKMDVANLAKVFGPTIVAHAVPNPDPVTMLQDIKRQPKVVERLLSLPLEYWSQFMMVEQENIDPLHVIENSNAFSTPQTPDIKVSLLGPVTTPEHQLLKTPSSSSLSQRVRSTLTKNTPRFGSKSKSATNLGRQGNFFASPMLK
Kind of assay: blockers of MgcRacGAP-driven Rac1 GTP hydrolysis – biochemical, ADP Hunter fluorescence, primary and confirmatory, confirmation (AID 624330). The assay is classed as functional.

A short description of assay [10]: A549 cell cytotoxicity, dose response, cytotoxicity control, plate reader, cherry-pick, antagonist series (AID 743412). The assay is classed as functional, cell-based.
The nature of assay [11]: blockers of bursicon-stimulated LGR2 cAMP reporter – cell-based, HEK293, CRE-luciferase reporter, cherry pick, set 2, dose response (AID 743343).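 Also: transfected cells were stimulated with diluted bursicon conditioned medium after compound addition.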 The assay is classed as functional.
A short description of assay [12]: blockade of melanocortin 4 receptor signaling – cell-based, plate reader, cherry pick, counter-screen for LGR2 antagonist project, dose response (AID 743444).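 Also: transfected HEK 293 cells stimulated with alpha-MSH peptide; potency of inhibitors of the alpha-MSH evoked signal.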 Type of assay: functional.
Assay [13] is described as follows: luciferase reporter signal suppression in cells – H4 neuroglioma cells, luminescence, dose response (AID 1990). Type of assay: functional, cell-based.
Assay [14] in a line: Luminescence Cell-Based Dose Response HTS to Identify Inhibitors of 5'UTR Stem-Loop Driven Prion Protein mRNA Translation in H4 Neuroglioblastoma Cells. [Related pubchem assays: 1827 (Project Summary), 1813 (Primary HTS)]. The assay is classed as functional.
Assay [15] can be described thus: alpha-synuclein stem-loop luciferase translation blockers – H4 neuroglioma cells, luminescence, confirmation (AID 1988). The assay is classed as functional, cell-based.
For the next assay, the target named is Albumin (Bos taurus, UniProt P02769). In words: Counterscreen for inhibitors of T-cell receptor (TCR)-CD3 interaction: Fluorescence-based biochemical high throughput dose response assay to identify inhibitors of T-cell receptor (TCR)-CD3 interaction using a TAMRA-labeled BSA probe. The assay is classed as functional.
Sequence of Albumin (P02769 whole entry): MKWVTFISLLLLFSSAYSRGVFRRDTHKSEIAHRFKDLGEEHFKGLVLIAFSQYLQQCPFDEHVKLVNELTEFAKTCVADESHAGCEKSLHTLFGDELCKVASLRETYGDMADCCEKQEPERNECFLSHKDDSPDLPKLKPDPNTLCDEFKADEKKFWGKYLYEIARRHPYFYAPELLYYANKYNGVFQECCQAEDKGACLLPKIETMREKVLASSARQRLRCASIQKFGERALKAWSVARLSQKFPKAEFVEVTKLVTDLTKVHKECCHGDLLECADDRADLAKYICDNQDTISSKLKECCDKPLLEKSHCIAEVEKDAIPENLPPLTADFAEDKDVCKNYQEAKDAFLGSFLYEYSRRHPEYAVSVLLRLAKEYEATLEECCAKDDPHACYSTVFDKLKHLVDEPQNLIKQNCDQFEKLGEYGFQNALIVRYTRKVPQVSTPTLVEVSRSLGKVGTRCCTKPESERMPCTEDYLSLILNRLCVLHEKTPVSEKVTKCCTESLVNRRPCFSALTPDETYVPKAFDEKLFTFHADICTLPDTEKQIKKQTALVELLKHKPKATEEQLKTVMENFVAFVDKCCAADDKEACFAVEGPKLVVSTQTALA
For assay [16], the target named is Mitogen-activated protein kinase 10 (Homo sapiens, UniProt P53779). In words: Dose response biochemical screening assay for inhibitors of c-Jun N-Terminal Kinase 3 (JNK3). [Related pubchem assays: 746 ].
Sequence of Mitogen-activated protein kinase 10 (P53779 whole entry): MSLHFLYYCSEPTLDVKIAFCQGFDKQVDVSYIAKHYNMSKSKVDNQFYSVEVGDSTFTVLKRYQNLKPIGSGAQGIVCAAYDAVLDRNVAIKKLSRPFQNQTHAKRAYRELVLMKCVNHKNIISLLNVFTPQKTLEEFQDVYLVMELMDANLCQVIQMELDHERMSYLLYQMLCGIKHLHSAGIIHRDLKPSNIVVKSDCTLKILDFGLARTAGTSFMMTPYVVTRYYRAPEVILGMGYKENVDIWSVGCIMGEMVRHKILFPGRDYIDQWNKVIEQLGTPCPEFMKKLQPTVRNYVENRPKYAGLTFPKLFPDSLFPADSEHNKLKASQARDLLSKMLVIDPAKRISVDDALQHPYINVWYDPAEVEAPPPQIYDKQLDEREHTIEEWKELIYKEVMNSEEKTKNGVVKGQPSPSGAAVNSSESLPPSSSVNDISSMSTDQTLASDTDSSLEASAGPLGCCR
The target in another assay is T2, Leucine aminopeptidase (Plasmodium falciparum 3D7, UniProt Q8IL11).
T2 sequence (Q8IL11 whole entry): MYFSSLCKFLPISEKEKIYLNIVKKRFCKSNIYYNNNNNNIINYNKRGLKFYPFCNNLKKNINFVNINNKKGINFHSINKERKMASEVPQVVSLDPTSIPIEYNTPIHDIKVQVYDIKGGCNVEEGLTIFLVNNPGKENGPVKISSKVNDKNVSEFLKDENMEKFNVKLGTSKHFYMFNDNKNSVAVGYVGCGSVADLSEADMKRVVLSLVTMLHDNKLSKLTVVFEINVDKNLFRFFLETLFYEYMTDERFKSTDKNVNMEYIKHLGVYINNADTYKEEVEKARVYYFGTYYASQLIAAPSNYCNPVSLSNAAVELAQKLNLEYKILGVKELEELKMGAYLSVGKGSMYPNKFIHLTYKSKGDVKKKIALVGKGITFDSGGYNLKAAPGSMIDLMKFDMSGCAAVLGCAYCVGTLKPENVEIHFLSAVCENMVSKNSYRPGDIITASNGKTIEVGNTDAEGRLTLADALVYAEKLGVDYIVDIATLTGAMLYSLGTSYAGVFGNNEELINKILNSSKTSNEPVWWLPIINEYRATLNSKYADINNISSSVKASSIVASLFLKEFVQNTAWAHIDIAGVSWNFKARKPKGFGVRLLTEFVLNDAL
In words: P. falciparum M17LAP inhibitors, primary screen, biochemical, fluorogenic H-Leu-NHMec substrate, 1536-well (AID 1619). The assay is classed as functional.

A further assay addresses T3, Caspase-6 (Homo sapiens, UniProt P55212).
T3 sequence (P55212 whole entry): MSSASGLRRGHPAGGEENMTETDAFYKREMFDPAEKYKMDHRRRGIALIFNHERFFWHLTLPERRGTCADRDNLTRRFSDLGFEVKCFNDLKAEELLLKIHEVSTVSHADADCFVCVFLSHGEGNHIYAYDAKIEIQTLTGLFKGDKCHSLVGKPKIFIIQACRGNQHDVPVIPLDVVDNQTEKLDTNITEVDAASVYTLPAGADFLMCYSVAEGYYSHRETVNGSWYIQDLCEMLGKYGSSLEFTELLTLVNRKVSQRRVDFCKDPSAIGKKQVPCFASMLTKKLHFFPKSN
Kind of assay: inhibition of CASP6 peptide cleavage – biochemical, VEID-R110 fluorescence, cherry-pick, dose response (AID 720632).

The target in assay [17] is T4, Histone-lysine N-methyltransferase NSD2 (Homo sapiens, UniProt O96028).
T4 sequence (O96028 whole entry): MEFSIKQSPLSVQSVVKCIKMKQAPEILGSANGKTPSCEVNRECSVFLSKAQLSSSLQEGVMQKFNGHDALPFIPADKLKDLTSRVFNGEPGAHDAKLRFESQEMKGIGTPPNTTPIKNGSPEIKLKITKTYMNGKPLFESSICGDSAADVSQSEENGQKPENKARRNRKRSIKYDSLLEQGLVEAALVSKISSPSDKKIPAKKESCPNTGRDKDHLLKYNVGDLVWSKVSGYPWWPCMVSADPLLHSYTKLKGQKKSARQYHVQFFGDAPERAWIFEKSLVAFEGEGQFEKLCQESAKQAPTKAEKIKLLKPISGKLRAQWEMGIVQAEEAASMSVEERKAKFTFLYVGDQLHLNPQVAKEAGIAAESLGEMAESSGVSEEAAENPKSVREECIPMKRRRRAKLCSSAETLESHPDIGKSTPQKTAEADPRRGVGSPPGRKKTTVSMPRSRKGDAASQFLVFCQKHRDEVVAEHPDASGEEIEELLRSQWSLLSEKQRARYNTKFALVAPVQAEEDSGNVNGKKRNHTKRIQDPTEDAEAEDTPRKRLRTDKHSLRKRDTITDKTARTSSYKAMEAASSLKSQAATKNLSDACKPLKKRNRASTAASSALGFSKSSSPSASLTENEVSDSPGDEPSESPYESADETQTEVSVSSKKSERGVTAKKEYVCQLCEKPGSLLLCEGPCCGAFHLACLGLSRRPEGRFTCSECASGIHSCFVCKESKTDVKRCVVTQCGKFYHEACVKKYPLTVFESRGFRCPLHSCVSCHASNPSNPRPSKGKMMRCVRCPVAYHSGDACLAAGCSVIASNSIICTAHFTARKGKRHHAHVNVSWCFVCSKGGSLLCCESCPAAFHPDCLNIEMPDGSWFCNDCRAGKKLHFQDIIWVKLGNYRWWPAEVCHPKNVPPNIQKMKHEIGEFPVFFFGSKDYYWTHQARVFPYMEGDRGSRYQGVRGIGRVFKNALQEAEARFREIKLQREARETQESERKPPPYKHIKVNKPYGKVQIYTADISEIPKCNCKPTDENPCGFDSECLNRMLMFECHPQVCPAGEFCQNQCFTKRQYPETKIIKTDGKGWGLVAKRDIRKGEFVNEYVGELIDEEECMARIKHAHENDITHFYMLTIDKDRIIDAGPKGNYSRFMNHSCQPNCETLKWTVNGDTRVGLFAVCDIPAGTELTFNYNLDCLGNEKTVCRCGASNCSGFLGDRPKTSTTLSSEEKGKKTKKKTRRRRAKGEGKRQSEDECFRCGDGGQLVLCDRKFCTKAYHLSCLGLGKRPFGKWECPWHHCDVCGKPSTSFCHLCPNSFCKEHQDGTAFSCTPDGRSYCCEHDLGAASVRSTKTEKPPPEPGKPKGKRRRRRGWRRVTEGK
The assay is classed as biochemical.

The target of assay [18] is T5, Tyrosyl-DNA phosphodiesterase 2 (Homo sapiens, UniProt O95551).
T5 sequence (O95551 whole entry): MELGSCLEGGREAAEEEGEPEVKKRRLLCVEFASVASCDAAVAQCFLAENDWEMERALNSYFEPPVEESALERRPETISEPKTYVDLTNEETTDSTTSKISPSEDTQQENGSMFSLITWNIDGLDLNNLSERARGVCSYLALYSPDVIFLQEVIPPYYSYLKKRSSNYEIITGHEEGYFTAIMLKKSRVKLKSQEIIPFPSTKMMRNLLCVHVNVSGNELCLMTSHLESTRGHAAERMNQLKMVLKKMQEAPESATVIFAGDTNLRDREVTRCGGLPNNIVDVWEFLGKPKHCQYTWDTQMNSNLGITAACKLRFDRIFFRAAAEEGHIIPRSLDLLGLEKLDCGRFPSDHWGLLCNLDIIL
In words: potency against TDP2 phosphodiesterase activity – biochemical, epi absorbance, IC50, dose response (AID 743297).

Assay [19] has as its system Streptococcus sp. 'group A'. In words: Streptococcus pyogenes SK(-)GAS viability under kanamycin – luminescence, BacTiterGlo, confirmation, counter-screen for streptokinase expression inhibitor project, dose response (AID 1900). The assay is classed as functional, organism-based.
The nature of assay [20]: cells. Type of assay: functional, cell-based.
Assay [21] in a line: cells. The assay is classed as functional, cell-based. This is another data set of the same source.
The next assay concerns Streptococcus. In words: GAS UMAA2166 growth inhibition – luminescence, BacTiterGlo, counter-screen for streptokinase expression inhibitor project, dose response (AID 1915).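 Also: potency for reduction of bacterial viability or growth.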 Type of assay: functional, organism-based.

Activity calls are given as the source filed them. A value given as a limit tells only on which side of the number the result lay.

Sequence of FAD-linked sulfhydryl oxidase ALR (P55789 whole entry): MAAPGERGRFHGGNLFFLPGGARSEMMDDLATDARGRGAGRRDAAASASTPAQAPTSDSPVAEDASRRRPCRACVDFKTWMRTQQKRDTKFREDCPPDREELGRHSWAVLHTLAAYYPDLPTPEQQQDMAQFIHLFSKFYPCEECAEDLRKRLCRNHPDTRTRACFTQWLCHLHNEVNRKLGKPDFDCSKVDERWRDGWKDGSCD

As to `COc1ccc(/C(C#N)=C2C=C/C(=N/O)C=C/2)cc1`, the values for the EC50 (in [1]; in assay [2]; in the assay on H4) were 16.7 µM (active), 14.5 µM (active) and 17.6 µM (active), respectively. Also, the results for the CC50 in assay [3], in assay [4] and in [8] were 13 µM (active), 13.3 µM (active) and 89.3 µM (active), respectively. The results for the AC50 in [5] and in assay [7] were 5.88 µM (active) and 4.64 µM (active), respectively. Besides, the values for the IC50 (in the assay “cells [6]”; in assay [9]) were 44.8 µM (active) and 93 µM (active), respectively.
`O=C1CC(c2ccc3c(c2)OCO3)Sc2nc3ccccc3n21` (stereo not drawn): the AC50 in assay [10] is > 52 µM (inactive); in assay [11], 13.1 µM (active); in assay [12] it was 11.2 µM (active).
With `CCCCCCn1c(=O)c(C(=O)Nc2ncccc2O)c(O)c2ccccc21`, the EC50 in [13] was 10.7 µM (active); in assay [14], 22.7 µM (active); in [15], 9.12 µM (active). Also, the IC50 at Albumin was > 94.2 µM (inactive).
For `O=S(=O)(c1ccc2c(c1)OCCO2)N1CCC(n2cnc3cc(F)ccc32)CC1`, the IC50 in assay [16] is given as 49.4 µM (not active).
As to `CCOc1ccc(NC(=O)CN2C(=O)C3CCCN3C2=O)cc1` (stereo not drawn), the IC50 at Leucine aminopeptidase was 3.23 µM (active); in assay [16] it was > 93.1 µM (not active).
With `O=C(Cn1cnc([N+](=O)[O-])n1)c1ccc(O)c(O)c1`, the half-maximal activity concentration (AC50) on Caspase-6 is 43.9 µM (active).
For `CC(=O)N1CCn2c3c(c(=O)c4cc(C)ccc42)CCC31` (stereo not drawn), the AC50 in assay [17] was 7.99 µM (active). The IC50 in [18] was 43.5 µM (inactive).
`Cc1nc2ccccc2c(=O)n1/N=C/c1cc(Br)cc(Br)c1O`: the EC50 in assay [19] was 5.09 µM (active); in “cells [20]” it was > 350 µM (not active); in the assay “cells [21]”, > 350 µM (not active); with Streptococcus it was 8.18 µM (active). The IC50 at Albumin was > 94.1 µM (inactive).
